Legend:
human bronchiols [1] = test: Test Procedure A: remaining contraction of human bronchus preparation on LTD4 challenge after 1 h pre-treatment with test item; assay type: cell-based; details: 10 nM Leukotriene D4; for % RC 1 μM: test item 1 μM pre-treatment; for % RC 10 μm: test item 10 μm, 1 h pre-treatment
Protocol: (§1) The usefulness of the compounds, as defined in the embodiments herein, in treating, revoking, mitigating, alleviating and/or preventing a condition of the respiratory apparatus characterized by bronchoconstriction, were evaluated in a complex and relevant in vitro model, which is described in US 2006-0040254 A1 and Skogvall, S., Berglund, M., Dalence-Guzmán, M. F., Svensson, K., Jönsson, P., Persson, C. G. A and Sterner, O., Pulmonary Pharmacology and Therapeutics, vol 20:3, 2007, p. 273-280. All references disclosed herein are hereby incorporated in their entirety by reference.
(§2) Lung tissue was obtained from patients undergoing lobectomia or pulmectomia due to lung carcinoma. The tissue was placed in a dissection chamber continuously perfused with 10 ml min^−1 of a physiological saline solution (PSS) at room temperature. An airway was identified in the cut part of the lobe, and a bronchus of 10-20 mm length, and 1-2 mm diameter was obtained. The bronchus was cut into rings of a width of about 2-3 mm. Each bronchial ring was cleaved to obtain an about rectangular oblong preparation free from cartilage, one end of which was tied to a small steel hook connected to a force transducer, while the other end of the preparation was attached to a fixed hook. This is followed by a period of adjustment, as described below. The preparation was mounted in an atmosphere containing 12% of oxygen and 6% of CO2.
(§3) The experimental assay system consists of 8 chambers, each with a volume of 6 ml, and is continuously perfused with solutions at a rate of 3 ml/min at 37° C. The chambers are equipped with force transducers (model AME 801, SensoNor A/S, Horton, Norway) allowing the individual registration of parallel preparations. The force transducers are connected to micrometer screws for stretching of tissue preparations to the desired tone. Recordings from the experiments are sampled and analysed using software from ADInstrumets. The substances to be tested and contractile agent are injected upstream of the preparation(s).
(§4) Materials. PPS (physiological saline solution, in mM): NaCl, 117; KCl, 4.87; MgSO4, 0.60; NaHCO3, 25.0; CaCl2, 1.60; glucose, 5.23. The solution is saturated with a mixture of 94% oxygen and 6% carbon dioxide, giving a pH of 7.40±0.05 in the experimental chamber. All substances are prepared as stock solution dissolved in the vehicles ethanol or DMSO. Leukotriene D4 (LTD4; Cayman Ltd.): 10 μl of a 100 μM ethanol stock solution. Substance to be tested: 10-100 μl of a 0.01-0.1 M DMSO stock solution. Solution for establishing the passive tension level: calcium-free PSS+2 mM EGTA. To exclude effects by the test substance vehicle, DMSO was added during the entire experiment except during the presence of test substance.
After mounting as described above the preparation is allowed to adjust with a low passive tone in the experimental chamber. The composition of the gas is changed to 94% (v/v) of oxygen. After a short adjustment period, PSS with 10 nM LTD4 is added to the experimental chamber upstream of the preparation (A). The preparation is stretched repeatedly (B) until it exerts a contraction force of around 150 mg. When the contraction has levelled off, LTD4-free solution is administered for 1 hour (C), resulting in a relaxation. A second injection of 10 nM LTD4 (D) makes the preparation return to the tensioned state. At the peak tension leukotriene-free solution is again administered (E). After a third injection of 10 nM LTD4 (F) the preparation returns to the tensioned state. […] After 1 h exposure to the test item, 10 nM LTD4 is added, resulting in a contraction (H). If the test item is a bronkorelaxant, a substantially weaker contraction is now observed (H) in comparison with the control LTD4 contraction (F). To obtain a measure of the test substance's bronchorelaxing effect the test and control forces registered in the experiment are compared. […]

human bronchiols [2] = test: Test Procedure B: remaining contraction of LTD4-contracted human bronchus preparation under sequential test item concentrations; assay type: cell-based; details: for % RC 0.1 μM: test item 0.1 μM for 1 h in 10 nM LTD4 PSS; for % RC 1 μM: test item 1 μM for 1 h in 10 nM LTD4 PSS; for % RC 1 μM / % RC 10 μM: sequential; for % RC 10 μM: test item 10 μM for 1 h in 10 nM LTD4 PSS
Protocol: as §1, §2, §3, §4
After mounting as described above the preparation is allowed to adjust with a low passive tone in the experimental chamber. The composition of the gas is changed to 94% (v/v) of oxygen. After a short adjustment period, PSS with 10 nM LTD4 is added to the experimental chamber upstream of the preparation (A). The preparation is stretched repeatedly (B) until it exerts a contraction force of around 150 mg. The preparation is kept at level contraction, plateau, with 10 nM LTD4 for 30 min (C). The preparation is then treated with 0.1 μM of the test item in 10 nM LTD4 PSS for 1 h. This is followed by the sequential treatment with 1 μM of the test item in 10 nM LTD4 PSS for 1 h (E) and finally 10 uM of the test item in 10 nM LTD4 PSS for 1 h (F). The experiment is concluded by adding calcium-free solution with addition of 2 mM EGTA for 20 min to establish the passive tension level base line (G).
The result, bronchorelaxing efficiency, is calculated as follows: by comparing and obtaining the ratio between the tensioned states (relative to base line) at the different concentrations, the bronchorelaxing efficiency of the test item is determined. The results are expressed as % remaining contraction (RC). […]

Row | Compound | % RC 1 μM (human bronchiols [1]) [%] | % RC 10 μm (human bronchiols [1]) [%] | % RC 0.1 μM (human bronchiols [2]) [%] | % RC 1 μM (human bronchiols [2]) [%] | % RC 10 μM (human bronchiols [2]) [%]
1 | Cc1nc2ncccc2cc1C(=O)NCc1ccc(C(F)(F)F)cc1 [Example 2, 2-Methyl-N-(4-(trifluoromethyl)benzyl)-1,8-naphthyridine-3-carboxamide] | 77 | 23 | – | – | –
2 | Cc1nc2ncccc2cc1C(=O)NCc1csc(-c2ccccc2)n1 [Example 4, 2-Methyl-N-((2-phenylthiazol-4-yl)methyl)-1,8-naphthyridine-3-carboxamide] | – | – | 85 | 39 | 4
3 | Cc1nc2ncccc2cc1C(=O)NCc1cccc(C(F)(F)F)c1 [Example 14, 2-Methyl-N-(3-(trifluoromethyl)benzyl)-1,8-naphthyridine-3-carboxamide] | 76 | 15 | – | – | –
4 | Cc1nc2ncccc2cc1C(=O)NCc1ccc(Cl)c(C(F)(F)F)c1 [Example 17, N-(4-Chloro-3-(trifluoromethyl)benzyl)-2-methyl-1,8-naphthyridine-3-carboxamide] | 67 | 8 | – | – | –
5 | Cc1nc2ncccc2cc1C(=O)NCc1ccc(-c2ccccc2)cc1 [Example 19, N-(Biphenyl-4-ylmethyl)-2-methyl-1,8-naphthyridine-3-carboxamide] | 41 | 17 | – | – | –
6 | Cc1nc2ncccc2cc1C(=O)NCc1ccc(N2CCN(C)CC2)c(C(F)(F)F)c1 [Example 62, 2-methyl-N-(4-(4-methylpiperazin-1-yl)-3-(trifluoromethyl)benzyl)-1,8-naphthyridine-3-carboxamide] | – | – | 92 | 63 | 17
7 | Cc1nc2ncccc2cc1C(=O)OCc1csc(-c2ccccc2)n1 [Example 101, (2-Phenylthiazol-4-yl)methyl 2-methyl-1,8-naphthyridine-3-carboxylate] | – | – | 72 | 63 | 27
8 | Cc1ccc2cc(C(=O)NCc3ccc(C(C)(C)C)cc3)c(C)nc2n1 [Example 109, N-(4-tert-butylbenzyl)-2,7-dimethyl-1,8-naphthyridine-3-carboxamide] | – | – | 73 | 25 | 1

From patent US8415333B2, “Bronchodilating diazaheteroaryls” (Respiratorious AB, priority 2009, dated 2013)
